Laboratory results: patent US20060194259A1, “Method for isolating an allosteric effector of a receptor” (priority 2002, published 2006)

Experiments:
receptor EGFP-NK2R [1] = molecular target: T1, receptor EGFP-NK2R (UniProt P16610); experiment: Dissociation kinetics of NKA-Bo bound to EGFP-NK2R by fluorescence energy transfer; assay type: binding; parameters: % al (max): maximum value observed for the increase in amplitude of the rapid dissociation rate; ns = n; other: 20 nM of NK; % al (at 10 μM); other: compou; fused on or other part: EGFP fused to the receptor as FRET donor; conditions: for % al (at 10 μM): compound 10 μM, T = 22 ± 1 is amplitude of rapid dissociation in the absence of effector; for % al (max): maximum value observed for the increase in amplitude of the rapid dissociation rate / EC50 / EC50 (μM): concentration of compound causing a 50% increase (relative to the maximum value) in the percentage of the amplitude of the rapid dissociation rate: Table 1, ns = not significant; for EC50: read-out: EC50 (μM): concentration of compound causing a 50% increase (relative to the maximum value) in the percentage of the amplitude of the rapid dissociation rate; for EC50 / EC50 (μM): concentration of compound causing a 50% increase (relative to the maximum value) in the percentage of the amplitude of the rapid dissociation rate: dissociation of NKA-Bo from EGFP-NK2R
T1 sequence (P16610 1-390): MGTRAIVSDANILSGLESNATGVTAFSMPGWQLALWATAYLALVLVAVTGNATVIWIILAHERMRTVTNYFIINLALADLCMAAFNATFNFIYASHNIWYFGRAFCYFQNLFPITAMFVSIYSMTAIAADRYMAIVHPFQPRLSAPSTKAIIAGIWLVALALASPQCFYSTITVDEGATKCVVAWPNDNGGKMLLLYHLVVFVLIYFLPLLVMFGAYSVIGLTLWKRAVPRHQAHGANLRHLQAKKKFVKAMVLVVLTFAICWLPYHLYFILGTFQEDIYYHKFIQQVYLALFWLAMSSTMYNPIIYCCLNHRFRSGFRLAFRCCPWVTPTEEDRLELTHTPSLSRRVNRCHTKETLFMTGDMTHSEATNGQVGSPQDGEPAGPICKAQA
Experimental: Dissociation (FIG. 4B): HEK 293 cells expressing the receptor EGFP-NK2R are put into suspension at a concentration of 1,000,000 cells/ml in Hepes physiological buffer (in mM: 137.5 NaCl; 1.25 MgCl2; 1.25 CaCl2; 6 KCl; 5.6 glucose; 10 Hepes; 0.4 NaH2PO4; 1% BSA (w/v); pH 7.4) and arranged in a 1 ml cuvette equipped with a magnetic stirrer on the cuvette holder of a SPEX fluorolog 3 spectrofluorimeter.
(§1) The amplitude of each relaxation is then given by the adjustment of the experimental traces.

receptor EGFP-NK2R [2] = molecular target: T1, receptor EGFP-NK2R; experiment: Reversion of the binding of NKA-Bo to EGFP-NK2R by fluorescence energy transfer; parameters: % al (max): maximum value observed for the increase in amplitude of the rapid dissociation rate; ns = n; other: 20 nM of NK; % al (at 10 μM); other: compou; fused on or other part: EGFP fused to the receptor as FRET donor; conditions: for % bond reversion (at 10 μM): compound 10 μM; for IC50: read-out: IC50 (μM): concentration of compound for which a 50% reduction is observed in the binding of NKA-Bo, 20 nM of NKA-Bo, EGFP-NK2R receptor
Text: as §1

[3] = system: cells not expressing the EGFP-NK2R receptor; experiment: Calcium response on cells not expressing the receptor; assay type: cell-based; parameters: key: ns: not significant; ?: uniterpretable; conditions: Table 1
[4] = in the presence of 50 μM compound, dissociation by non-fluorescent NKA

## N#CCN(Cc1ccc2ccccc2c1)Cc1ccccc1Br [CV1-80, [(2-bromobenzyl)(2-naphthylmethyl)amino]acetonitrile]
Receptor EGFP-NK2R [1]
  % al (at 10 μM): 25%
Receptor EGFP-NK2R [2]
  % bond reversion (at 10 μM): 16%

## N#CCN(Cc1ccccc1)Cc1c[nH]c2ccccc12 [CV1-81]
Receptor EGFP-NK2R [1]
  % al (at 10 μM): 22%
Receptor EGFP-NK2R [2]
  % bond reversion (at 10 μM): 15%

## N#CCN(Cc1ccccc1)Cc1cccc(Br)c1 [CV1-84, [benzyl(3-bromobenzyl)amino]acetonitrile]
Receptor EGFP-NK2R [1]
  % al (at 10 μM): 25%
Receptor EGFP-NK2R [2]
  % bond reversion (at 10 μM): 4%

## N#CCN(Cc1ccccc1)Cc1ccc(Br)cc1 [CV1-85, [benzyl(4-bromobenzyl)amino]acetonitrile]
Receptor EGFP-NK2R [1]
  % al (at 10 μM): 28%
Receptor EGFP-NK2R [2]
  % bond reversion (at 10 μM): 4%

## N#CCN(Cc1ccc(Br)cc1)Cc1ccc2ccccc2c1 [CV1-93, [4-bromobenzyl(2-naphthylmethyl)amino]acetonitrile]
Receptor EGFP-NK2R [1]
  % al (at 10 μM): 26%
Receptor EGFP-NK2R [2]
  % bond reversion (at 10 μM): 3%

## N#CCN(Cc1ccccc1)Cc1cccc(Cl)c1Cl [CV1-97]
Receptor EGFP-NK2R [1]
  % al (at 10 μM): 34%
Receptor EGFP-NK2R [2]
  % bond reversion (at 10 μM): 15%

## N#CCN(Cc1ccccc1)Cc1ccc(Cl)cc1 [CV1-122]
Receptor EGFP-NK2R [1]
  % al (at 10 μM): 31%
Receptor EGFP-NK2R [2]
  % bond reversion (at 10 μM): 17%

## N#CCN(Cc1ccccc1)Cc1cccc(Cl)c1 [CV1-123]
Receptor EGFP-NK2R [1]
  % al (at 10 μM): 26%
Receptor EGFP-NK2R [2]
  % bond reversion (at 10 μM): 7%

## N#CCN(Cc1ccc(CCc2ccccc2)cc1)Cc1ccc2ccccc2c1 [CV1-135]
Receptor EGFP-NK2R [1]
  % al (at 10 μM): 22%
Receptor EGFP-NK2R [2]
  % bond reversion (at 10 μM): 6%

## c1ccc(CNc2ncc(-c3ccccc3)s2)cc1 [F3, Benzyl-(5-phenyl-thiazol-2-yl)-amine]
Receptor EGFP-NK2R [1]
  % al (max): maximum value observed for the increase in amplitude of the rapid dissociation rate: 65%
  EC50: 1 to 5 µM

## O=C(CC(Nc1ncc(-c2ccccc2)s1)c1ccccc1)c1ccccc1 (stereo not drawn) [F7, 1,3-Diphenyl-3-(5-phenyl-thiazol-2-ylamino)-propan-1-one]
[3]
  Ca Rep.: ability to evoke a calcium response on cells not expressing the EGFP-NK2R receptor: ns
Receptor EGFP-NK2R [1]
  % al (max): maximum value observed for the increase in amplitude of the rapid dissociation rate: ≧60%
  EC50: ≥ 50 µM
Receptor EGFP-NK2R [2]
  IC50: 90 µM

## Cc1ccc(NC(CC(=O)c2ccccc2)c2ccccc2)nc1 (stereo not drawn) [F9, 3-(5-Methyl-pyridin-2-ylamino)-1,3-diphenyl-propan-1-one]
Receptor EGFP-NK2R [1]
  EC50 (μM): concentration of compound causing a 50% increase (relative to the maximum value) in the percentage of the amplitude of the rapid dissociation rate: ns
  % al (max): maximum value observed for the increase in amplitude of the rapid dissociation rate: ns
Receptor EGFP-NK2R [2]
  IC50: > 50 µM

## NCCCC(NC(=O)c1ccccc1)C(=O)NC(Cc1ccccc1)C(N)=O (stereo not drawn) [G6, N-(4-amino-1-(1-carbamoyl-2-phenyl-ethylcarbamoyl)-butyl)-benzamide]
Receptor EGFP-NK2R [1]
  EC50 (μM): concentration of compound causing a 50% increase (relative to the maximum value) in the percentage of the amplitude of the rapid dissociation rate: ns
  % al (max): maximum value observed for the increase in amplitude of the rapid dissociation rate: ns
Receptor EGFP-NK2R [1]; dissociation by non-fluorescent NKA in the presence of compound
  effect on the dissociation kinetics of NKA-Bo: does not alter the dissociation rate
Receptor EGFP-NK2R [1]; [4]
  amplitude of the rapid dissociation of NKA-Bo (% of total signal): 66%
  amplitude of the slow dissociation of NKA-Bo (% of total signal): 33%
Receptor EGFP-NK2R [2]
  IC50: 46 µM

## CCOC(=O)c1ccc(CN(CC#N)Cc2ccc3ccccc3c2)cc1 [G11, 4-[(Cyanomethyl-naphthalen-2-ylmethyl-amino)-methyl]-benzoic acid ethyl ester]
[3]
  Ca Rep.: ability to evoke a calcium response on cells not expressing the EGFP-NK2R receptor: ns
Receptor EGFP-NK2R [1]
  % al (max): maximum value observed for the increase in amplitude of the rapid dissociation rate: 70%
  EC50: 10 to 30 µM
Receptor EGFP-NK2R [2]
  IC50: > 100 µM

## Nc1ccc(CNCc2ccc3ccccc3c2)cc1 [H3, 4-{[(Naphthalen-2-ylmethyl)-amino]-methyl}-phenylamine]
[3]
  Ca Rep.: ability to evoke a calcium response on cells not expressing the EGFP-NK2R receptor: ns
Receptor EGFP-NK2R [1]
  EC50 (μM): concentration of compound causing a 50% increase (relative to the maximum value) in the percentage of the amplitude of the rapid dissociation rate: ns
  % al (max): maximum value observed for the increase in amplitude of the rapid dissociation rate: ns
Receptor EGFP-NK2R [2]
  IC50: > 50 µM

## Clc1ccc(CNCc2ccc3ccccc3c2)cc1 [H6, (4-Chloro-benzyl)-naphthalen-2-ylmethyl-amine]
Receptor EGFP-NK2R [1]
  % al (max): maximum value observed for the increase in amplitude of the rapid dissociation rate: 80%
  EC50: 50 to 80 µM
Receptor EGFP-NK2R [2]
  IC50: > 100 µM

## NC(=O)CN(Cc1ccc2ccccc2c1)c1ccccc1 [H10, 2-(Naphthalen-2-ylmethyl-phenyl-amino)-acetamide]
[3]
  Ca Rep.: ability to evoke a calcium response on cells not expressing the EGFP-NK2R receptor: ns
Receptor EGFP-NK2R [1]
  % al (max): maximum value observed for the increase in amplitude of the rapid dissociation rate: >60%
  EC50: > 50 µM
Receptor EGFP-NK2R [2]
  IC50: ≥ 100 µM

## N#CCN(Cc1ccc(Cl)cc1)Cc1ccc2ccccc2c1 [NP234 or 801, [(4-chlorobenzyl)(2-naphthylmethyl)amino]acetonitrile]
[3]
  Ca Rep.: ability to evoke a calcium response on cells not expressing the EGFP-NK2R receptor: ns
Receptor EGFP-NK2R [1]
  % al (max): maximum value observed for the increase in amplitude of the rapid dissociation rate: 60-70%
  EC50: 5 to 10 µM
Receptor EGFP-NK2R [2]
  IC50: 110 µM

## N#CCN(Cc1ccc(Cl)c(Cl)c1)Cc1ccc2ccccc2c1 [NP246 or 803, [(3,4-dichlorobenzyl)(2-naphthylmethyl)amino]acetonitrile]
[3]
  Ca Rep.: ability to evoke a calcium response on cells not expressing the EGFP-NK2R receptor: ns
Receptor EGFP-NK2R [1]
  % al (max): maximum value observed for the increase in amplitude of the rapid dissociation rate: 60-70%
  EC50: 10 to 30 µM
Receptor EGFP-NK2R [1]; at 100 μM of effector, approximately 25% in the absence of effector
  fraction of receptors in the low-affinity state: ~100%
Receptor EGFP-NK2R [2]
  IC50: > 500 µM

## CC(=O)NC1(c2ccccc2)CCN(CC[C@H](CN(C)C(=O)c2ccccc2)c2ccc(Cl)c(Cl)c2)CC1 [SR 48968, reference compound]
Receptor EGFP-NK2R [1]; each tested concentration of SR 48968
  ratio of rapid/slow amplitudes of dissociation of NKA-Bo: 45/55
Receptor EGFP-NK2R [1]; in the presence of 0.2, 1 and 5 nM of SR 48968
  relative amplitude of rapid dissociation (0.04 s^-1) of NKA-Bo: 45%

## N#CCN(Cc1ccc(N)cc1)Cc1cccc2ccccc12 [compound 804, [(4-aminobenzyl)(1-naphthylmethyl)amino]acetonitrile]
[3]
  Ca Rep.: ability to evoke a calcium response on cells not expressing the EGFP-NK2R receptor: ns
Receptor EGFP-NK2R [1]
  % al (max): maximum value observed for the increase in amplitude of the rapid dissociation rate: ≧80%
  EC50: 20 to 30 µM
Receptor EGFP-NK2R [2]
  IC50: > 100 µM

## COC(=O)CN(Cc1ccccc1)Cc1ccc2ccccc2c1 [compound 806, methyl [benzyl(2-naphtylmethyl)amino]acetate]
[3]
  Ca Rep.: ability to evoke a calcium response on cells not expressing the EGFP-NK2R receptor: ns
Receptor EGFP-NK2R [1]
  % al (max): maximum value observed for the increase in amplitude of the rapid dissociation rate: 90%
  EC50: 10 to 20 µM
Receptor EGFP-NK2R [2]
  IC50: > 200 µM

## NC(=O)CN(Cc1ccccc1)Cc1ccc2ccccc2c1 [compound 807, 2-[benzyl(2-naphthylmethyl)amino]acetamide]
[3]
  Ca Rep.: ability to evoke a calcium response on cells not expressing the EGFP-NK2R receptor: +?
Receptor EGFP-NK2R [1]
  % al (max): maximum value observed for the increase in amplitude of the rapid dissociation rate: ≧90%

## C#CCN(Cc1ccccc1)Cc1ccc2ccccc2c1 [compound 808, N-benzyl-N-(2-naphthylmethyl)-N-prop-2-ynylamine]
Receptor EGFP-NK2R [1]
  % al (max): maximum value observed for the increase in amplitude of the rapid dissociation rate: ≧70%
  EC50: 20 to 30 µM
Receptor EGFP-NK2R [2]
  IC50: > 200 µM

## N#CCN(Cc1ccccc1)c1ncc(-c2ccccc2)s1 [compound 809, [benzyl(5-phenyl-1,3-thiazol-2-yl)amino]acetonitrile]
Receptor EGFP-NK2R [1]
  % al (max): maximum value observed for the increase in amplitude of the rapid dissociation rate: ≧75%
  EC50: 1 to 20 µM
Receptor EGFP-NK2R [2]
  IC50: > 100 µM
